# Results: PubChem BioAssay AID602404 (Sanford-Burnham Center for Chemical Genomics, 2012)
# pIC50: −log10 of the molar value. Where “and” joins values, the source holds several entries; their conditions need not be identical. Equal entries are not always repeated. Calls of active or inactive are those of the source. The rule behind the calls is not given here.
# Target: Ubiquitin-conjugating enzyme E2 N (Homo sapiens) (UniProt P61088)
# Test: inhibition of UBC13-driven polyubiquitin chain formation – biochemical, TR-FRET, set 4, SAR follow-up (AID 602404)
# Details: UBC13 polyubiquitination
# Sequence of Ubiquitin-conjugating enzyme E2 N (Homo sapiens) (P61088 whole entry, looked up): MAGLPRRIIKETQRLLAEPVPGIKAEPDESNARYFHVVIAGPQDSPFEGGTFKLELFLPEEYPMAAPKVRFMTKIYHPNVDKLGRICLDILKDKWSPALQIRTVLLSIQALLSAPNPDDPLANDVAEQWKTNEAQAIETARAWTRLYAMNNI
SMILES,pIC50,IC50
CCC1CCCCN1CCCNC(=O)C1CCN(c2ncnc3c2nc2n3CCCCC2)CC1 (stereo not given),5.25,
O=C(NCC1CCN(Cc2ccc(Cl)cc2)CC1)C1CCCN(c2ncnc3c2nc2n3CCCC2)C1 (stereo not given),5.17,
O=C(NCC1CCN(Cc2ccc(Cl)cc2)CC1)C1CCCN(c2ncnc3c2nc2n3CCCCC2)C1 (stereo not given),5.56,
O=C(NCc1cccc(Cl)c1)C1CCCN(c2ncnc3c2nc2n3CCCC2)C1 (stereo not given),,> 100 µM (inactive)
O=C(NCCCN1CCCCC1)C1CCN(c2ncnc3c2nc2n3CCCCC2)CC1,5.47,
O=C(NCC1CCN(Cc2ccccc2Cl)CC1)C1CCCN(c2ncnc3c2nc2n3CCCCC2)C1 (stereo not given),5.64,
Cc1cc(C)cc(NC(=O)C2CCCN(c3ncnc4c3nc3n4CCCC3)C2)c1 (stereo not given),,inactive
Cc1cccc(NC(=O)C2CCN(c3ncnc4c3nc3n4CCCCC3)CC2)c1C,,inactive
Cc1cccc(NC(=O)C2CCN(c3ncnc4c3nc3n4CCCC3)CC2)c1,,inactive
COc1cc(OC)c(NC(=O)C2CCN(c3ncnc4c3nc3n4CCCCC3)CC2)cc1Cl,,inactive
O=C(NCc1ccc(Cl)c(Cl)c1)C1CCN(c2ncnc3c2nc2n3CCCC2)CC1,,> 100 µM (inactive)
CCCN1CCN(C(=O)C2CCN(c3ncnc4c3nc3n4CCCCC3)CC2)CC1,5.52,
CC1CCCC(C)N1CCCNC(=O)C1CCCN(c2ncnc3c2nc2n3CCCCC2)C1 (stereo not given),5.06,
Cc1ccc(NC(=O)C2CCN(c3ncnc4c3nc3n4CCCC3)CC2)cc1Br,,inactive
O=C(NCC1CCN(Cc2cccc(Cl)c2)CC1)C1CCCN(c2ncnc3c2nc2n3CCCCC2)C1 (stereo not given),6.09 and 5.95,
O=C(C1CCN(c2ncnc3c2nc2n3CCCCC2)CC1)N1CCOCC1,,inactive
O=C(C1CCN(c2ncnc3c2nc2n3CCCCC2)CC1)N1CCN(c2ccccc2)CC1,,inactive
Cc1ccc(NC(=O)C2CCN(c3ncnc4c3nc3n4CCCCC3)CC2)c(Cl)c1,,> 100 µM (inactive)
O=C(NCC1CCN(Cc2cccc(Cl)c2)CC1)[C@@H]1CCCN(c2ncnc3c2nc2n3CCCC2)C1,6.11,
Cc1c(Cl)cccc1NC(=O)C1CCN(c2ncnc3c2nc2n3CCCCC2)CC1,4.93,
Cc1cc(C)cc(NC(=O)C2CCCN(c3ncnc4c3nc3n4CCCCC3)C2)c1 (stereo not given),,inactive
Cc1ccc(NC(=O)C2CCCN(c3ncnc4c3nc3n4CCCC3)C2)cc1Br (stereo not given),,inactive
O=C(C1CCN(c2ncnc3c2nc2n3CCCCC2)CC1)N1CCN(c2ccccn2)CC1,,inactive
O=C(Nc1ccc(F)c(Cl)c1)C1CCN(c2ncnc3c2nc2n3CCCCC2)CC1,5.25,
Cc1ccc(NC(=O)C2CCN(c3ncnc4c3nc3n4CCCCC3)CC2)cc1F,,inactive

SMILES,pIC50,IC50
Cc1ccc(NC(=O)C2CCCN(c3ncnc4c3nc3n4CCCCC3)C2)cc1Br (stereo not given),,> 100 µM (inactive)
O=C(NCc1cccc(Cl)c1)C1CCCN(c2ncnc3c2nc2n3CCCCC2)C1 (stereo not given),,inactive
O=C(NCCCN1CCN(c2ccccc2)CC1)C1CCCN(c2ncnc3c2nc2n3CCCCC2)C1 (stereo not given),5.51,
O=C(NCCCN1CCN(c2ccc(F)cc2)CC1)C1CCCN(c2ncnc3c2nc2n3CCCCC2)C1 (stereo not given),5.65,
O=C(NCC1CCN(Cc2ccccc2F)CC1)C1CCCN(c2ncnc3c2nc2n3CCCCC2)C1 (stereo not given),5.07,
Cc1ccc(NC(=O)C2CCN(c3ncnc4c3nc3n4CCCC3)CC2)cc1F,,inactive
Cc1ccc(NC(=O)C2CCCN(c3ncnc4c3nc3n4CCCC3)C2)cc1C (stereo not given),,inactive
O=C(NCC1CCN(Cc2ccc(Cl)c(Cl)c2)CC1)C1CCCN(c2ncnc3c2nc2n3CCCC2)C1 (stereo not given),5.24,
O=C(C1CCN(c2ncnc3c2nc2n3CCCCC2)CC1)N1CCN(c2ccc(F)cc2)CC1,,inactive
O=C(Nc1cccc(Cl)c1)C1CCN(c2ncnc3c2nc2n3CCCCC2)CC1,5.24,
O=C(NCC1CCN(Cc2cccc(Cl)c2)CC1)[C@@H]1CCCN(c2ncnc3c2nc2n3CCCCC2)C1,5.47,
Cc1cc(Cl)ccc1NC(=O)C1CCN(c2ncnc3c2nc2n3CCCCC2)CC1,,inactive
COc1ccccc1N1CCN(CCCNC(=O)C2CCCN(c3ncnc4c3nc3n4CCCCC3)C2)CC1 (stereo not given),,inactive
O=C(NCC1CCN(Cc2cccc(Cl)c2)CC1)C1CCCN(c2ncnc3c2nc2n3CCCC2)C1 (stereo not given),6.02,
O=C(NCC1CCN(Cc2ccccc2Cl)CC1)C1CCCN(c2ncnc3c2nc2n3CCCC2)C1 (stereo not given),5.98,
Cc1ccc(NC(=O)C2CCN(c3ncnc4c3nc3n4CCCCC3)CC2)cc1Cl,5.40,
O=C(NCC1CCN(Cc2ccc(F)cc2)CC1)C1CCCN(c2ncnc3c2nc2n3CCCCC2)C1 (stereo not given),5.54,
COc1cc(Cl)c(C)cc1NC(=O)C1CCN(c2ncnc3c2nc2n3CCCCC2)CC1,,> 100 µM (inactive)
O=C(c1ccco1)N1CCN(C(=O)C2CCN(c3ncnc4c3nc3n4CCCCC3)CC2)CC1,,inactive
Cc1ccc(NC(=O)C2CCN(c3ncnc4c3nc3n4CCCCC3)CC2)cc1Br,,> 100 µM (inactive)
Cc1cccc(N2CCN(CCCNC(=O)C3CCCN(c4ncnc5c4nc4n5CCCCC4)C3)CC2C)c1 (stereo not given),4.72,
Cc1cccc(NC(=O)C2CCN(c3ncnc4c3nc3n4CCCCC3)CC2)c1,,inactive
O=C(C1CCN(c2ncnc3c2nc2n3CCCCC2)CC1)N1CCN(Cc2ccccc2)CC1,5.52,
O=C(NCc1ccc(Cl)c(Cl)c1)C1CCN(c2ncnc3c2nc2n3CCCCC2)CC1,,> 100 µM (inactive)
O=C(NCc1ccc(Cl)c(Cl)c1)C1CCCN(c2ncnc3c2nc2n3CCCC2)C1 (stereo not given),,inactive

SMILES,pIC50,IC50
Cc1ccc(NC(=O)C2CCCN(c3ncnc4c3nc3n4CCCCC3)C2)cc1F (stereo not given),,inactive
Cc1ccc(NC(=O)C2CCCN(c3ncnc4c3nc3n4CCCC3)C2)cc1F (stereo not given),,inactive
Cc1ccc(C)c(CN2CCC(CNC(=O)C3CCCN(c4ncnc5c4nc4n5CCCCC4)C3)CC2)c1 (stereo not given),5.57,
O=C(Nc1cc(F)ccc1F)C1CCN(c2ncnc3c2nc2n3CCCCC2)CC1,,inactive
O=C(NCc1ccc(Cl)c(Cl)c1)C1CCCN(c2ncnc3c2nc2n3CCCCC2)C1 (stereo not given),,> 100 µM (inactive)
O=C(NCC1CCN(Cc2cccc(Cl)c2)CC1)[C@H]1CCCN(c2ncnc3c2nc2n3CCCC2)C1,5.58,
Cc1cc(C)cc(NC(=O)C2CCN(c3ncnc4c3nc3n4CCCCC3)CC2)c1,,> 100 µM (inactive)
O=C(NCC1CCN(Cc2ccc(Cl)c(Cl)c2)CC1)C1CCCN(c2ncnc3c2nc2n3CCCCC2)C1 (stereo not given),5.39,
Cc1ccccc1CN1CCC(CNC(=O)C2CCCN(c3ncnc4c3nc3n4CCCCC3)C2)CC1 (stereo not given),5.45,
COc1ccc(Cl)cc1NC(=O)C1CCN(c2ncnc3c2nc2n3CCCCC2)CC1,,inactive
O=C(C1CCN(c2ncnc3c2nc2n3CCCCC2)CC1)N1CCC(Cc2ccccc2)CC1,4.85,
CN(CCNC(=O)C1CCN(c2ncnc3c2nc2n3CCCCC2)CC1)Cc1ccccc1,5.91,
O=C(NCc1cccc(Cl)c1)C1CCN(c2ncnc3c2nc2n3CCCC2)CC1,4.90,
Cc1ccc(NC(=O)C2CCN(c3ncnc4c3nc3n4CCCC3)CC2)cc1C,,inactive
O=C(C1CCN(c2ncnc3c2nc2n3CCCCC2)CC1)N1CCN(c2ncccn2)CC1,,inactive
Cc1cc(C)cc(NC(=O)C2CCN(c3ncnc4c3nc3n4CCCC3)CC2)c1,,inactive
Cc1cccc(NC(=O)C2CCCN(c3ncnc4c3nc3n4CCCC3)C2)c1 (stereo not given),,inactive
CC1CCCCN1C(=O)C1CCN(c2ncnc3c2nc2n3CCCCC2)CC1 (stereo not given),,> 100 µM (inactive)
O=C(Nc1ccc(CN2CCCCC2)cc1)C1CCN(c2ncnc3c2nc2n3CCCCC2)CC1,,inactive
Cc1cccc(NC(=O)C2CCCN(c3ncnc4c3nc3n4CCCCC3)C2)c1 (stereo not given),,> 100 µM (inactive)
O=C(NCC1CCN(Cc2cccc(Cl)c2)CC1)[C@H]1CCCN(c2ncnc3c2nc2n3CCCCC2)C1,4.82,
O=C(NCc1cccc(Cl)c1)C1CCN(c2ncnc3c2nc2n3CCCCC2)CC1,,inactive
Cc1ccc(C)c(N2CCN(CCCNC(=O)C3CCCN(c4ncnc5c4nc4n5CCCCC4)C3)CC2)c1 (stereo not given),5.02,
COc1ccc(NC(=O)C2CCN(c3ncnc4c3nc3n4CCCCC3)CC2)cc1Cl,,inactive
CC1CC(C)CN(C(=O)C2CCN(c3ncnc4c3nc3n4CCCCC3)CC2)C1 (stereo not given),,inactive
